Experimental data reported in ChEMBL document CHEMBL1142524, “Virtual screening to successfully identify novel janus kinase 3 inhibitors: a sequential focused screening approach” (J Med Chem, 2008).

Target: T1, Tyrosine-protein kinase JAK3 (Homo sapiens, UniProt P52333)
T1 sequence (P52333 whole entry): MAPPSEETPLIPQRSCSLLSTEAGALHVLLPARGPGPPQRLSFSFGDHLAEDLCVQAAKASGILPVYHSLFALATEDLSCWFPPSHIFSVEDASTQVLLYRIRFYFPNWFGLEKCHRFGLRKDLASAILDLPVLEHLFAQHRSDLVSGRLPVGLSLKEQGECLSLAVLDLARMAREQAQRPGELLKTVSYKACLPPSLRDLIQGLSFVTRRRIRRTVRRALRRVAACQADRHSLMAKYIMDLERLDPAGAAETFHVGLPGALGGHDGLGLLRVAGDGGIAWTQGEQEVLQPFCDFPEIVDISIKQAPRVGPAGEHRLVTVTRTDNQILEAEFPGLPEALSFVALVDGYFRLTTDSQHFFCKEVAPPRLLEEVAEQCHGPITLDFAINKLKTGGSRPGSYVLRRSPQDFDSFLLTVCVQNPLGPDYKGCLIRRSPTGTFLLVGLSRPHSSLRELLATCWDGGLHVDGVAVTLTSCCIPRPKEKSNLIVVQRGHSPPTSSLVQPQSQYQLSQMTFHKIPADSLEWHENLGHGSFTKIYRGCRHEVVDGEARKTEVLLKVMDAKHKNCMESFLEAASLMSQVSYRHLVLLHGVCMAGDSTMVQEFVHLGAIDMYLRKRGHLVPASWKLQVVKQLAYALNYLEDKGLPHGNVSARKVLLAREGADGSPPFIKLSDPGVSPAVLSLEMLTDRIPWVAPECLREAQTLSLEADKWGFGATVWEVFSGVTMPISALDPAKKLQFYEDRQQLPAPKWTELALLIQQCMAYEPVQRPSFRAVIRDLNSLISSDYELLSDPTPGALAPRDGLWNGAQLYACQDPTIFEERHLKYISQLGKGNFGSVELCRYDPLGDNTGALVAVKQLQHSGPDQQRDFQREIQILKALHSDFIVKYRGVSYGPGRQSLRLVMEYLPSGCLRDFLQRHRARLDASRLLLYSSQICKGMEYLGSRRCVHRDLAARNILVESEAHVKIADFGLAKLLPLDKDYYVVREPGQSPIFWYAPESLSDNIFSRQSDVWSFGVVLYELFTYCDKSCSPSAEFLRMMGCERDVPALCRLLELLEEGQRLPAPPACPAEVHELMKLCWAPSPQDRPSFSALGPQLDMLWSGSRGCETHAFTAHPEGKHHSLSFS
Assay: Inhibition of JAK3

IC50 [nM]	SMILES
98	CN1CCN(c2ccc(Nc3ncc4[nH]nc(-c5ccccc5)c4n3)cc2)CC1
2640	Cc1cc(C(=O)Nc2ccc3[nH]ncc3c2)nn1-c1cccc(C(F)(F)F)c1
957	Oc1c2ccccc2c2c3c(cccc13)N=N2 [SP-600125]
